# PubChem BioAssay AID504903 (Southern Research Specialized Biocontainment Screening …, 2011)
# Active and inactive are the calls of the source. The rule behind the calls is not given here.
# Legend:
# [1] = M. tuberculosis growth inhibition, dose response, H37Rv, 7H9 media, purified and synthesized compounds, set 5 (AID 504903); settings: M. tuberculosis H37Rv growth in 7H9 medium; at 100 µM (top of the series)
# [2] = tested on: M. tuberculosis H37Rv growth in 7H9 medium; assay: as above; settings: for IC50: measured here: M. tuberculosis growth IC50
SMILES,growth inhibition [1],IC90 [2],IC50 [2]
CN(C)C(=O)CSc1nc2ccccc2c(=O)[nH]1,-2.5% (inactive),–,–
CC(C)NC(=O)CSc1nc2ccccc2c(=O)[nH]1,–,18800 nM,4770 nM
Cc1nc(SCc2ccccc2Cl)[nH]c(=O)c1C,-6.23% (inactive),–,–
COc1cccc(NC(=O)CSc2nc3ccccc3c(=O)[nH]2)c1,-1.31% (inactive),–,–
CC[N+](C)(CC)CCCCOc1ccc2c(c1)C(=O)c1cc(OCCCC[N+](C)(CC)CC)ccc1-2,–,2450 nM,1500 nM
NC(=O)c1cnccn1,0.23% (inactive),–,–
Cc1c[nH]c(=S)[nH]c1=O,-1.72% (inactive),–,–
NNC(=O)c1ccncc1,–,320 nM,190 nM
NC(=O)CSc1nc2ccccc2c(=O)[nH]1,3.23% (inactive),–,–
CCOC(=O)CSc1nc(C)c(C)c(=O)[nH]1,-4.51% (inactive),–,–
COc1ccc(NC(=O)CSc2nc3ccccc3c(=O)[nH]2)cc1,4.59% (inactive),–,–
O=C(CSc1nc2ccccc2c(=O)[nH]1)N1CCOCC1,-3.23% (inactive),–,–
CC(C)CCNC(=O)CSc1nc2ccccc2c(=O)[nH]1,–,120 nM,< 60 nM
Cc1ccc(NC(=O)COC(=O)CCc2c[nH]c3ccccc23)cc1[N+](=O)[O-],–,3590 nM,860 nM
CC1CCN(C(=O)C2CCN(c3nnc(-n4cccc4)s3)CC2)CC1,–,4660 nM,2550 nM
Cc1nc(SCC(=O)N(C)c2ccccc2)[nH]c(=O)c1C,-9.88% (inactive),–,–
Cc1ccc(NC(=O)CSc2nc3ccccc3c(=O)[nH]2)cc1Cl,-6.21% (inactive),–,–
CCCc1cc(C(N)=S)ccn1,–,–,6010 nM
Cc1[nH]c2ccccc2c1C(=O)COC(=O)c1ccc([N+](=O)[O-])s1,–,–,> 50300 nM
COC(=O)c1ccc(CNc2c(N3CCCC3)c(=O)c2=O)cc1,23.6% (inactive),–,–
Cc1ccc(C(=O)N/N=C(/CC(=O)c2cccs2)C(F)(F)F)cc1,–,2940 nM,1250 nM
Cn1c(SCC(=O)NC2CCCCC2)nc2ccccc2c1=O,-10.1% (inactive),–,–
Cc1cccc(-c2oc3ccc(-c4ccc5c(c4)OCO5)cc3c2C#Cc2cncn2C)c1,–,3030 nM,2520 nM

SMILES,growth inhibition [1],IC90 [2],IC50 [2]
Cc1cc(Br)ccc1NC(=O)c1cnc(N2CCN(c3ccccn3)CC2)c2ccccc12,–,6160 nM,680 nM
Cc1nc(SCC(N)=O)[nH]c(=O)c1C,1.58% (inactive),–,–
O=C(CSc1nc2ccccc2c(=O)[nH]1)NC1CCCC1,–,550 nM,30 nM
Nc1c(C(=O)NC2CCCCC2)nsc1C(=O)OCC(=O)NC1CCCCC1,–,42400 nM,1970 nM
Nc1cc(=O)[nH]c(SCC(=O)NC2CCCCC2)n1,-2.55% (inactive),–,–
CCC(Sc1nc2c(c(=O)[nH]1)CCC2)C(=O)Nc1cccc(OC)c1 (stereo not drawn),0.63% (inactive),–,–
CO[C@H]1/C=C/O[C@@]2(C)Oc3c(C)c(O)c4c(O)c(c(C=NN5CCN(C)CC5)c(O)c4c3C2=O)NC(=O)/C(C)=C\C=C\[C@H](C)[C@H](O)[C@@H](C)[C@@H](O)[C@@H](C)[C@H](OC(C)=O)[C@@H]1C,–,10 nM,< 10 nM
CN[C@@H]1[C@H](O[C@H]2[C@H](O[C@H]3[C@H](O)[C@@H](O)[C@H](N=C(N)N)[C@@H](O)[C@@H]3N=C(N)N)O[C@@H](C)[C@]2(O)C=O)O[C@@H](CO)[C@H](O)[C@H]1O,–,140 nM,70 nM
COC(=O)C(C)Oc1ccc(Cc2ncc(C(F)(F)F)cc2Cl)cc1 (stereo not drawn),–,7660 nM,3110 nM
Cc1nc(SCC(=O)NCCC(C)C)[nH]c(=O)c1C,–,9790 nM,4870 nM
O=C(CSc1nc2ccccc2c(=O)[nH]1)NCc1ccc(Cl)cc1,–,980 nM,440 nM
O=C(CSc1ccccn1)NC1CCCCC1,–,–,> 95800 nM
CCC(Sc1nc2ccccc2c(=O)[nH]1)C(=O)Nc1cccc(OC)c1 (stereo not drawn),-2.52% (inactive),–,–
CC(C)N=c1cc2n(-c3ccc(Cl)cc3)c3ccccc3nc-2cc1Nc1ccc(Cl)cc1,–,310 nM,10 nM
CCOc1ccc(-c2cc(C)[n+](CCc3ccc(OC)c(OC)c3)c(-c3ccc(OCC)cc3)c2)cc1,–,860 nM,480 nM
NC[C@H]1O[C@H](O[C@H]2[C@H](O)[C@@H](O[C@H]3O[C@H](CO)[C@@H](O)[C@H](N)[C@H]3O)[C@H](N)C[C@@H]2N)[C@H](O)[C@@H](O)[C@@H]1O,–,2360 nM,1140 nM
CCOC1OC(=O)C(Cl)=C1Nc1ccccc1C (stereo not drawn),–,5450 nM,2900 nM
Cc1nc(SCC(=O)NC2CCCC2)[nH]c(=O)c1C,–,10500 nM,4490 nM
Cc1cc(=O)[nH]c(SCC(=O)NC2CCCCC2)n1,8.24% (inactive),–,–
CC(Sc1nc2ccccc2c(=O)[nH]1)C(=O)NC1CCCCC1 (stereo not drawn),-8.54% (inactive),–,–
CCC(Sc1nc2ccccc2c(=O)[nH]1)C(=O)NC1CCCCC1 (stereo not drawn),-1.65% (inactive),–,–
Cc1[nH]c(=S)[nH]c(=O)c1C,-6.68% (inactive),–,–
COc1c(N2CCNC(C)C2)c(F)cc2c(=O)c(C(=O)O)cn(C3CC3)c12 (stereo not drawn),–,120 nM,90 nM

SMILES,growth inhibition [1],IC90 [2],IC50 [2]
O=C(CSc1nc2ccccc2c(=O)[nH]1)NC1CCCCC1,–,310 nM,160 nM
Cc1cc(=O)[nH]c(=S)[nH]1,-8.51% (inactive),–,–
c1ccc(/N=C2\N=C(Nc3ccccn3)c3ccccc32)nc1,–,1330 nM,750 nM
CCSc1nc(C)c(C)c(=O)[nH]1,-1.81% (inactive),–,–
Cc1cnc(SCC(=O)NC2CCCCC2)[nH]c1=O,-2.75% (inactive),–,–
O=C(CSc1nccc(=O)[nH]1)NC1CCCCC1,-5.41% (inactive),–,–
Cc1cccc(/C=C/C(=O)c2ccc([N+](=O)[O-])o2)c1,–,800 nM,310 nM
O=C(CSc1ncccn1)NC1CCCCC1,-3.3% (inactive),–,–
CCSc1nc2ccccc2c(=O)[nH]1,-4.06% (inactive),–,–
COc1cccc(NC(=O)CSc2nc3c(c(=O)[nH]2)CCC3)c1,-9.73% (inactive),–,–
CN(C(=O)CSc1nc2ccccc2c(=O)[nH]1)C1CCCCC1,-0.89% (inactive),–,–
CN1CCC(NC(=O)CSc2nc3ccccc3c(=O)[nH]2)CC1,-7.75% (inactive),–,–
O=c1[nH]c(SCc2ccccc2Cl)nc2c1CCCC2,-4.24% (inactive),–,–
CC1CCN(C(=O)CSc2nc3ccccc3c(=O)[nH]2)CC1,-3.58% (inactive),–,–
CC(C)CCNC(=O)CSc1nc2c(c(=O)[nH]1)CCC2,–,1030 nM,600 nM
Cc1cc(C)n2nc(N)c(N=Nc3ccccc3)c2n1,–,5540 nM,3880 nM
O=C(CSc1nc2c(c(=O)[nH]1)CCCC2)NC1CCCCC1,–,< 70 nM,< 30 nM
COC(=O)C(Nc1nc(SCC(=O)NC2CCCCC2)nc2ccccc12)c1ccccc1 (stereo not drawn),0.4% (inactive),–,–
CNC(=O)CSc1nc2ccccc2c(=O)[nH]1,–,–,56200 nM
Cc1nc(SCC(=O)NC2CCCCC2)[nH]c(=O)c1C,–,230 nM,< 10 nM
O=C(CSc1nc2c(c(=O)[nH]1)CCC2)NC1CCCCC1,–,< 70 nM,< 40 nM
O=c1[nH]c(=S)[nH]c2ccccc12,-4.57% (inactive),–,–
